Assay results: patent US11793867B2, “Neoantigens and uses thereof” (BIONTECH US INC., priority 2017, dated 2023)

Legend:
CD8+ T cell responses = assay: In vivo immunogenicity assay, longmers and shortmers sequentially (FIG. 3 regimen); parameters: species or system C57BL/6 mice; conditions: CD8 T cells induced by Alg8 vaccination
Method: FIG. 3 illustrates exemplary administration regimen for peptides comprising neoepitopes. The top panel depicts administering a prime dose and boost of longmer. The middle panel depicts administering a prime dose and boost of shortmer. The lower panel depicts administering a prime dose of longmer and boost of shortmer. The boost dose is administered on day 7, 14, and day 21 after the prime dose.
Peptide-specific T cells are functionally enumerated using the ELISPOT assay (BD Biosciences), which measures the release of IFNγ from T cells on a single cell basis. Cells incubated with antigen overnight (16-18 hours) at 37° C. The next day, the cell suspension was discarded, and wells were washed once with PBS, and twice with deionized water. […] Substrate (3-amino-9-ethyl-carbazole, 0.1 M Acetate buffer, H2O2) was added to all wells, and spot development monitored (approximately 10 minutes). […] The plates were analyzed on an ELISPOT reader (Cellular Technology Ltd.) with accompanying software. […]
MHC tetramers were purchased or manufactured on-site, and were used to measure peptide-specific T cell expansion in the immunogenicity assays. […] The phenotype of cells was assessed using markers such as CD44, CD62L, KLRG1, CD127, PD-1, LAG-3 and TIM-3. […] Cells were acquired on a FACS Calibur (Becton Dickinson) instrument, and were analyzed by use of Cellquest software (Becton Dickinson). […]

[1] = in humans; cited from earlier work
[2] = in combination with a NYESO-1 peptide vaccine (in addition to Montanide); cited from earlier work

TCR avidity (EC50) (CD8+ T cell responses) | Substance | CD4+ and CD8+ responses [1] | patients showing induction of CD4+ and CD8+ T cell, as well as antibody responses to the peptide [2]
similar | AVGITYTWTRLYASVLTGSLVSKTKK [Alg8, longmer murine neoantigen peptide, H-2Kb, T3 model] |  | 
 | poly-ICLC | durable CD4+ and CD8+ responses | > 90%
similar | ITYTWTRL [Alg8-shortmer] |  | 
